Source: US20050043314A1, “Substituted alkylaminopyridazinone derivatives, process for the preparation thereof and pharmaceutical composition containing the same” (priority 2001, published 2005)

Columns and labels:
mouse = assay: Inhibition of spontaneous motor activity (Dews instrument); type: in vivo; settings: per os, 60 min before test, 30 min recording; sedative effect
Method: The effect on spontaneous motor activity was investigated according to Borsy and co-workers [Borsy, J. et al, Arch. Int. Pharmacodyn., 124, 180-190 (1960)] in a ten channel Dews instrument, with 1-1 animal in each channel. Animals were placed into the instrument 60 min after per os treatment with either vehicle or test compound, and interruptions of infrared beams were recorded for 30 min. […] Diazepam was used as the reference substance.

male Wistar rats [1] = assay: Vogel lick-conflict (drinking conflict) test; type: in vivo, rat; settings: intraperitoneally, 30 min prior to test; number of tolerated shocks
Method: Experiments were performed in a PC operated system (LIIKOSYS, Experimetria, Hungary) consisted of 8 test chambers (20 cm×20 cm×20 cm Plexiglas boxes) each of which was equipped with a water fountain system mounted at appropriate height on the wall of the chamber and metal grid floor for delivering electric shocks. 160-180 g male Wistar rats (N═8) were deprived of drinking water 48 h and fasted for 24 h prior to test. Test and reference compounds or vehicle were administered intraperitoneally, 30 min prior to test. All procedures were carried out in a quiet, air-conditioned room between 07:30 and 13:00 h at an ambient temperature of 23±2° C. At the beginning of the test the animals were placed in the test chamber where they had free access to drinking water for a 30 s grace period. After that, electric shocks (600 μA, 0.6 s) were applied through the drinking spout following every 20 licks during the 5 min test period (Vogel et al, 1971). Number of punished licks were recorded and stored by an IBM compatible computer. Means±SEM of numbers of tolerated shocks were calculated in each group, statistical analysis of data was performed by one way ANOVA followed by Duncan's test (STATISTICA). Diazepam [7-chloro-1,3-dihydro-1-methyl-5-phenyl-2H-1,4-benzodiazepine-2-one] was used as the reference substance.

Male Sprague-Dawley rats = assay: Elevated plus-maze test in rats; type: in vivo, rat; settings: 60 min after treatment, minimal effective dose regarding time spent in the open arms
Source text: Test have been performed as described by Pellow and co-workers [J.Neurosci. Methods, 14, 149 (1985)]. A wooden cross, 15 cm wide with 100 cm long arms was used for the experiments. The sides and ends of two opposite arms of the cross were equipped with 40 cm high walls, however, the arms were open to the […] central area (closed arms). The two other opposite arms were not encircled by walls (open arms).
Male Sprague-Dawley rats weighing 200-220 g were used for the experiments. The animals were placed in the central area of the equipment 60 min after treatment and the following four parameters have been observed for the 5 min test time: • time spent in the open arms, • time spent in the closed arms, • number of entries into the open arms, • number of entries into the closed arms.
The effect was expressed as percent increase in either the time (measured in sec) spent in the open arms or number of entries into the open arms. MEDs (minimal effective dose) were determined for each compound regarding the time spent in the open arms
Buspirone [8-{4-[4-(2-pyrimidinyl)-1-piperazinyl]butyl}-8-azaspiro[4,5]decane-7,9-dione] was used as the reference substance.

male Wistar rats [2] = assay: Effects on blood pressure in conscious, freely moving rats (radiotelemetry); type: in vivo, rat
Source text: A 7 day postoperative recovery period was allowed.
None of the compounds examined reduced blood pressure of the test animals.

Molecule | ID50 in mg/kg po. (mouse) | MED in mg/kg ip. (male Wistar rats [1]) | melting point | MED in mg/kg po. (Male Sprague-Dawley rats) | Results of statistical evaluation (male Wistar rats [2]; blood pressure compared to placebo, N.S. = Not significant statistically, two-way ANOVA with Scheffe's post hoc test) | Mean blood pressure after treatment with test compound, Mean (male Wistar rats [2]; mean arterial blood pressure for 6 hours after oral treatment, conscious rats)
O=c1cc(NCCN2CCN(c3ccccc3F)CC2)cn[nH]1 [Example 2, 5-{2-[4-(2-fluorophenyl)piperazine-1-yl]ethyl-amino}-2H-pyridazine-3-one] | 21.0 mg/kg | 20.0 mg/kg | 103 to 105 °C | – | – | –
O=c1cc(NCCN2CCN(c3ncccn3)CC2)cn[nH]1 [Example 5, 5-[2-(4-pyrimidin-2-ylpiperazine-1-yl)ethylamino]-2H-pyridazine-3-one] | >100.0 mg/kg | 20.0 mg/kg | 199 to 201 °C | – | – | –
O=c1cc(NCCN2CCN(c3ccccc3)CC2)cn[nH]1 [Example 3, 5-{2-[4phenylpiperazine-1-yl]ethylamino}2H-pyridazine-3-one] | 60.0 mg/kg | 5.0 mg/kg | 147 to 149 °C | 0.1 mg/kg | – | –
O=c1cc(NCCN2CCN(c3ccccn3)CC2)cn[nH]1 [Example 4, 5-[2-(4-pyridin-2-ylpiperazine-;1-yl)ethylamino]-2H-pyridazine-3-one] | – | 10.0 mg/kg | – | – | – | –
O=c1cc(NCCN2CCN(c3ccc(F)cc3)CC2)cn[nH]1 [Example 7, 5-{2-[4-(4-fluorophenyl)piperazine-1-yl]ethyl-amino]-2H-pyridazine-3-one] | – | 20.0 mg/kg | 96 to 98 °C | – | N.S. | 92.7 mmHg
5-{2-[4-(methoxytrifluoromethylphenyl)-piperazine-1-yl]-ethylamino}-2H-pyridazine-3-one trihydrochloride [Example 1] | – | 20.0 mg/kg | – | – | – | –
CN1C(=O)CN=C(c2ccccc2)c2cc(Cl)ccc21 [Diazepam, 7-chloro-1,3-dihydro-1-methyl-5-phenyl-2H-1,4-benzodiazepine-2-one, reference compound] | 7.0 mg/kg | 5.0 mg/kg | – | – | – | –
